Here are results for 35 molecules from US7655665B2, “Nitromethylene derivatives and their use” (East China University of Science and Technology, priority 2004, dated 2010).

The structures appear in SMILES notation.

For one data set, the system named is Aphis craccivoral. Put plainly: Insecticidal activity against Aphis craccivoral by immersing (dipping aphids on bean sprout). The data set is classed as in vivo. The settings on record: 23° C. In short, it runs like this: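 Wingless adult A. craccivora feeding on bean sprouts dipped 5 seconds in compound at 500 ug/mL (0.2 mL/L Triton X-100 aqueous), then held at 23 °C. Mortality counted after 24 hours, three replicates, vehicle-only control.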

Another data set deals with Nilaparvata lugens. Put plainly: Insecticidal activity against Nilaparvata lugens (planthopper) by spraying. The data set is classed as in vivo. To be noted: 500 ppm; for mortality (%) (500 ppm) Nilaparvata lugens: spraying 2 ml, counted after 24 hours; for mortality (%) (500 ppm) Nilaparvata-lugens: spraying 2 ml per tumbler, killed counted after 24 hours. In short, it runs like this: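 Ten planthoppers per tumbler were introduced 6 hours before spraying with 2 ml of test solution, with clean water as blank control. Each treatment had 3 replicates, and three series were run. Mortality was counted after 24 hours.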

Setting [1] is: 500 ppm, immersing (dipped 5 seconds), counted after 24 hours.
Setting [2] is: 500 ppm (500 ug/mL dilution), dipped 5 seconds, killed aphis counted after 24 hours.

For the molecule `CCCCCSC1CCC([N+](=O)[O-])=C2N(Cc3ccc(Cl)nc3)CCN21` (stereo not shown) [Compound 143], in the data set with Aphis craccivoral (setting [1]), the “mortality (%) (500 ppm) Aphis” value turned out to be 23%. Moreover, the “mortality (%) (500 ppm) Nilaparvata lugens” value with Nilaparvata lugens was determined as 34%.
`CCC(C)SC1CCC([N+](=O)[O-])=C2N(Cc3ccc(Cl)nc3)CCN21` (stereo not shown) [Compound 144]: the “mortality (%) (500 ppm) Aphis” value in the data set on Aphis craccivoral (setting [1]) was found to be 12%. The “mortality (%) (500 ppm) Nilaparvata lugens” value in the data set on Nilaparvata lugens is 56%.
Taken in the same sequence, the figures for `CC(C)CCSC1CCC([N+](=O)[O-])=C2N(Cc3ccc(Cl)nc3)CCN21` (stereo not shown) [Compound 145] were 67% and 78%.
Consider `CCCC(C)SC1CCC([N+](=O)[O-])=C2N(Cc3ccc(Cl)nc3)CCN21` (stereo not shown) [Compound 146], for which the “mortality (%) (500 ppm) Aphis” value in the data set with Aphis craccivoral (setting [1]) is 35%. Besides, in the data set on Nilaparvata lugens, the “mortality (%) (500 ppm) Nilaparvata lugens” value was 97%.
For the molecule `CC(C)(C)CSC1CCC([N+](=O)[O-])=C2N(Cc3ccc(Cl)nc3)CCN21` (stereo not shown) [Compound 147], in the data set on Aphis craccivoral (setting [1]), the “mortality (%) (500 ppm) Aphis” value is on record as 56%. Also, in the data set with Nilaparvata lugens, the “mortality (%) (500 ppm) Nilaparvata lugens” value amounted to 99%.
Turning to `COCCSC1CCC([N+](=O)[O-])=C2N(Cc3ccc(Cl)nc3)CCN21` (stereo not shown) [Compound 148], the “mortality (%) (500 ppm) Aphis” value with Aphis craccivoral (setting [1]) was 67%. Besides, the “mortality (%) (500 ppm) Nilaparvata lugens” value in the data set on Nilaparvata lugens is given as 89%.
The matching figures for `CCOCCSC1CCC([N+](=O)[O-])=C2N(Cc3ccc(Cl)nc3)CCN21` (stereo not shown) [Compound 149]: 98% and 100%.
As for `CC(=O)OC1CCC([N+](=O)[O-])=C2N(Cc3cnc(Cl)s3)CCN21` (stereo not shown) [Compound 152], the “mortality (%) (500 ppm) Aphis” value in the data set on Aphis craccivoral (setting [1]) was found to be 3%. Also, in the data set with Nilaparvata lugens, the “mortality (%) (500 ppm) Nilaparvata lugens” value worked out at 0%.
Taken in the same sequence, the figures for `CCC(=O)OC1CCC([N+](=O)[O-])=C2N(Cc3cnc(Cl)s3)CCN21` (stereo not shown) [Compound 153] were 29% and 38%.
Taken in the same sequence, the figures for `O=C(OC1CCC([N+](=O)[O-])=C2N(Cc3cnc(Cl)s3)CCN21)C(Cl)(Cl)Cl` (stereo not shown) [Compound 154] were 93% and 100%.
Taken in the same sequence, the figures for `O=C(OC1CCC([N+](=O)[O-])=C2N(Cc3cnc(Cl)s3)CCN21)C(F)(F)F` (stereo not shown) [Compound 155] were 48% and 90%.
In the case of `CS(=O)(=O)OC1CCC([N+](=O)[O-])=C2N(Cc3cnc(Cl)s3)CCN21` (stereo not shown) [Compound 156], the “mortality (%) (500 ppm) Aphis” value with Aphis craccivoral (setting [1]) is reported as 78%. For the same molecule, in the data set with Nilaparvata lugens, the “mortality (%) (500 ppm) Nilaparvata lugens” value is 92%.
For the molecule `O=[N+]([O-])C1=C2N(Cc3cnc(Cl)s3)CCN2C(OS(=O)(=O)C(F)(F)F)CC1` (stereo not shown) [Compound 157], the “mortality (%) (500 ppm) Aphis” value with Aphis craccivoral (setting [1]) is 56%. In the data set on Nilaparvata lugens, the “mortality (%) (500 ppm) Nilaparvata lugens” value turned out to be 100%.
Regarding `O=[N+]([O-])C1=C2N(Cc3cnc(Cl)s3)CCN2C(OS(=O)(=O)c2ccccc2)CC1` (stereo not shown) [Compound 158], the “mortality (%) (500 ppm) Aphis” value with Aphis craccivoral (setting [1]) is on record as 6%. Moreover, the “mortality (%) (500 ppm) Nilaparvata lugens” value in the data set with Nilaparvata lugens is reported as 7%.
Regarding `O=C(OC1CCC([N+](=O)[O-])=C2N(Cc3cnc(Cl)s3)CCN21)c1cccnc1` (stereo not shown) [Compound 159], the “mortality (%) (500 ppm) Aphis” value in the data set on Aphis craccivoral (setting [1]) amounted to 0%. In the data set on Nilaparvata lugens, the “mortality (%) (500 ppm) Nilaparvata lugens” value is listed as 8%.
Consider `O=C(OC1CCC([N+](=O)[O-])=C2N(Cc3cnc(Cl)s3)CCN21)c1ccccn1` (stereo not shown) [Compound 160], for which, in the data set on Aphis craccivoral (setting [1]), the “mortality (%) (500 ppm) Aphis” value was found to be 4%. Also, the “mortality (%) (500 ppm) Nilaparvata lugens” value with Nilaparvata lugens is given as 8%.
Taken in the same sequence, the figures for `O=C(OC1CCC([N+](=O)[O-])=C2N(Cc3cnc(Cl)s3)CCN21)c1ccccc1` (stereo not shown) [Compound 161] were 3% and 5%.
As for `O=C(OC1CCC([N+](=O)[O-])=C2N(Cc3cnc(Cl)s3)CCN21)c1cc(F)c(Cl)cc1Cl` (stereo not shown) [Compound 164], the “mortality (%) (500 ppm) Aphis” value in the data set on Aphis craccivoral (setting [1]) was found to be 59%. For the same molecule, the “mortality (%) (500 ppm) Nilaparvata lugens” value with Nilaparvata lugens came to 78%.
In the case of `O=C(OC1CCC([N+](=O)[O-])=C2N(Cc3cnc(Cl)s3)CCN21)c1ccc(C(F)(F)F)cc1` (stereo not shown) [Compound 165], the “mortality (%) (500 ppm) Aphis” value in the data set on Aphis craccivoral (setting [2]) is given as 90%. In addition, the “mortality (%) (500 ppm) Nilaparvata-lugens” value with Nilaparvata lugens amounted to 100%.
Regarding `O=C(OC1CCC([N+](=O)[O-])=C2N(Cc3cnc(Cl)s3)CCN21)c1cc(F)c(F)cc1F` (stereo not shown) [Compound 166], in the data set with Aphis craccivoral (setting [2]), the “mortality (%) (500 ppm) Aphis” value turned out to be 0%. Moreover, in the data set on Nilaparvata lugens, the “mortality (%) (500 ppm) Nilaparvata-lugens” value turned out to be 45%.
For the molecule `O=C(OC1CCC([N+](=O)[O-])=C2N(Cc3cnc(Cl)s3)CCN21)c1cc(F)c(F)c(F)c1F` (stereo not shown) [Compound 167], in the data set on Aphis craccivoral (setting [2]), the “mortality (%) (500 ppm) Aphis” value worked out at 12%. In addition, the “mortality (%) (500 ppm) Nilaparvata-lugens” value with Nilaparvata lugens amounted to 4%.
As for `O=C(OC1CCC([N+](=O)[O-])=C2N(Cc3cnc(Cl)s3)CCN21)c1ccccc1F` (stereo not shown) [Compound 168], the “mortality (%) (500 ppm) Aphis” value in the data set with Aphis craccivoral (setting [2]) is 56%. Further, the “mortality (%) (500 ppm) Nilaparvata-lugens” value in the data set with Nilaparvata lugens amounted to 100%.
The matching figures for `O=C(OC1CCC([N+](=O)[O-])=C2N(Cc3cnc(Cl)s3)CCN21)c1cc(F)c(F)c([N+](=O)[O-])c1F` (stereo not shown) [Compound 169]: 2% and 13%.
In the case of `O=C(OC1CCC([N+](=O)[O-])=C2N(Cc3cnc(Cl)s3)CCN21)c1ccc(Cl)c(Cl)c1` (stereo not shown) [Compound 170], in the data set on Aphis craccivoral (setting [2]), the “mortality (%) (500 ppm) Aphis” value was 2%. In the data set with Nilaparvata lugens, the “mortality (%) (500 ppm) Nilaparvata-lugens” value amounted to 0%.
In the case of `CSC1CCC([N+](=O)[O-])=C2N(Cc3cnc(Cl)s3)CCN21` (stereo not shown) [Compound 171], the “mortality (%) (500 ppm) Aphis” value in the data set on Aphis craccivoral (setting [2]) was 97%. For the same molecule, in the data set with Nilaparvata lugens, the “mortality (%) (500 ppm) Nilaparvata-lugens” value is on record as 100%.
With `CCSC1CCC([N+](=O)[O-])=C2N(Cc3cnc(Cl)s3)CCN21` (stereo not shown) [Compound 172], the “mortality (%) (500 ppm) Aphis” value in the data set on Aphis craccivoral (setting [2]) is 100%. For the same molecule, the “mortality (%) (500 ppm) Nilaparvata-lugens” value in the data set with Nilaparvata lugens amounted to 100%.
For the molecule `O=[N+]([O-])C1=C2N(Cc3cnc(Cl)s3)CCN2C(SCC(F)(F)F)CC1` (stereo not shown) [Compound 174], in the data set on Aphis craccivoral (setting [2]), the “mortality (%) (500 ppm) Aphis” value turned out to be 67%. Also, the “mortality (%) (500 ppm) Nilaparvata-lugens” value in the data set with Nilaparvata lugens came to 100%.
On to `CCCSC1CCC([N+](=O)[O-])=C2N(Cc3cnc(Cl)s3)CCN21` (stereo not shown) [Compound 175], for which the “mortality (%) (500 ppm) Aphis” value in the data set with Aphis craccivoral (setting [2]) was found to be 89%. For the same molecule, the “mortality (%) (500 ppm) Nilaparvata-lugens” value in the data set with Nilaparvata lugens came to 100%.
The matching figures for `CC(C)SC1CCC([N+](=O)[O-])=C2N(Cc3cnc(Cl)s3)CCN21` (stereo not shown) [Compound 176]: 78% and 98%.
The matching figures for `CCCCSC1CCC([N+](=O)[O-])=C2N(Cc3cnc(Cl)s3)CCN21` (stereo not shown) [Compound 178]: 23% and 12%.
Regarding `CC(C)CSC1CCC([N+](=O)[O-])=C2N(Cc3cnc(Cl)s3)CCN21` (stereo not shown) [Compound 179], the “mortality (%) (500 ppm) Aphis” value in the data set on Aphis craccivoral (setting [2]) turned out to be 12%. In addition, the “mortality (%) (500 ppm) Nilaparvata-lugens” value with Nilaparvata lugens came to 56%.
`CCC(C)SC1CCC([N+](=O)[O-])=C2N(Cc3cnc(Cl)s3)CCN21` (stereo not shown) [Compound 180]: in the data set on Aphis craccivoral (setting [2]), the “mortality (%) (500 ppm) Aphis” value amounted to 34%. Also, the “mortality (%) (500 ppm) Nilaparvata-lugens” value in the data set on Nilaparvata lugens was found to be 78%.
Taken in the same sequence, the figures for `CC(C)(C)SC1CCC([N+](=O)[O-])=C2N(Cc3cnc(Cl)s3)CCN21` (stereo not shown) [Compound 181] were 45% and 78%.
As to `CCCCCSC1CCC([N+](=O)[O-])=C2N(Cc3cnc(Cl)s3)CCN21` (stereo not shown) [Compound 182], the “mortality (%) (500 ppm) Aphis” value in the data set on Aphis craccivoral (setting [2]) is given as 67%. Moreover, the “mortality (%) (500 ppm) Nilaparvata-lugens” value in the data set on Nilaparvata lugens is listed as 87%.
Taken in the same sequence, the figures for `CC(C)CCSC1CCC([N+](=O)[O-])=C2N(Cc3cnc(Cl)s3)CCN21` (stereo not shown) [Compound 183] were 23% and 34%.
